Reference: article PMC3946342, “Evaluating Molecular Mechanism of Hypotensive Peptides Interactions with Renin and Angiotensin Converting Enzyme” (PLoS ONE, 2014)
Where “and” joins values, the source holds several entries; their conditions need not be identical. Identical values can stand only once. Residues, ends and D or L forms follow the SMILES beside them.

Assays:
[1] = target: T1, renin (Homo sapiens, UniProt P00797); experiment: Kinetics of renin inhibition (Lineweaver-Burk); assay type: biochemical; details: for Mode of renin inhibition: double reciprocal plot; for K′m / V′max / Ki: renin; for Ki: secondary plot of Lineweaver-Burk slopes, read-out: Ki (enzyme-inhibitor dissociation constant)
T1 construct: purchased Cayman Chemicals 10006217
T1 sequence (P00797 67-406): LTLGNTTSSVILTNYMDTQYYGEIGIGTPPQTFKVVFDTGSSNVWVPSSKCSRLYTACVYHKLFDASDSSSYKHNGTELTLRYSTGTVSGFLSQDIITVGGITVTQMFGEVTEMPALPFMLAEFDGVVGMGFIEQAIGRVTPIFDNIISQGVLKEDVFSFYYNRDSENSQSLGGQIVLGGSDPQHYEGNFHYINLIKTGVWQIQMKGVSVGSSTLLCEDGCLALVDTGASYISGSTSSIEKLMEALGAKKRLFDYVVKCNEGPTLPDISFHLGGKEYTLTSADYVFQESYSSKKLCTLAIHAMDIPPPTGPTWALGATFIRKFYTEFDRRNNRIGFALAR
Procedure: (§1) Kinetics of ACE and renin inhibition was determined using a previously described method. For ACE inhibition, the substrate (FAPGG) concentrations were 0.0625, 0.125, 0.25 and 0.5 mM, while renin substrate concentrations were 1.25, 2.5, 5 and 10 µM. Peptide concentrations used during the assays are shown in Tables 1 and 2 for the kinetics of ACE and renin inhibition, respectively. The modes of ACE and renin inhibition were determined from Lineweaver-Burk plots while inhibition parameters (Vmax and Km) were calculated, respectively, as the Y and X-axis intercepts of the primary plot. Ki was calculated as the X-axis intercept of the line obtained from a secondary plot of Lineweaver-Burk line slopes versus peptide concentrations.

[2] = target: T1, renin; experiment: Intrinsic fluorescence emission of renin with peptides; assay type: binding
Procedure: Fluorescence emission spectra were obtained using the method of Li et al.. Briefly, 25 µL of 1 U/mL ACE (prepared in 50 mM Tris–HCl buffer, pH 7.5, containing 300 mM NaCl) or 25 µL of 250 µg/mL renin (prepared in 50 mM Tris–HCl buffer, pH 8.0, containing 100 mM NaCl) was mixed with 50 µL of peptide solution and 25 µL of the appropriate buffer to yield a 100 µL assay solution. Emission spectra were recorded at 25°C using a micro quartz cell (100 µL capacity) on a JASCO FP-6300 spectrofluorimeter (JASCO, Tokyo, Japan). ACE or renin assay solutions were excited at 280 nm and emission recorded from 290 to 450 nm. Emission spectrum of the respective buffer, peptides and enzymes was subtracted from the emission spectrum of each assay solution.

[3] = target: T1, renin; experiment: Far-UV circular dichroism of renin-peptide complex; details: for Unordered / α-helix / β-sheet / β-turn: renin
Procedure: (§2) Far-UV CD spectra were obtained using a JASCO J-815 spectropolarimeter (JASCO, Tokyo, Japan) under constant nitrogen flush according to the method of Omoni and Aluko [11]. A 0.5 mm pathlength quartz cell was used for the far UV (190–240 nm) measurements and each final spectrum was the average of three consecutive scans with simultaneous subtraction of the respective buffer, peptides and enzymes spectrum. For determining the peptide-enzyme interaction spectra, 150 µL of 1 U/mL ACE (prepared in 50 mM Tris–HCl buffer, pH 7.5, containing 300 mM NaCl) or 150 µL of 250 µg/mL renin (prepared in 50 mM Tris–HCl buffer, pH 8.0, containing 100 mM NaCl) was mixed with 50 µL of a peptide solution. The far-UV CD spectra in the 200–240 nm range were analyzed for secondary structure fractions using the online DICHROWEB procedure.

[4] = test system: renin; design: method as in earlier work; details: previously determined ref 8; read-out: IC50 for renin inhibition; cited from earlier work
[5] = target: T2, Rabbit lung ACE (Oryctolagus cuniculus, UniProt P12822); experiment: Kinetics of ACE inhibition (Lineweaver-Burk, FAPGG substrate); assay type: biochemical
T2 construct: Rabbit lung ACE (A6778, 98% purity); purchased Sigma-Aldrich A6778; host or cells: rabbit lung (tissue-derived)
T2 sequence (P12822 34-1310): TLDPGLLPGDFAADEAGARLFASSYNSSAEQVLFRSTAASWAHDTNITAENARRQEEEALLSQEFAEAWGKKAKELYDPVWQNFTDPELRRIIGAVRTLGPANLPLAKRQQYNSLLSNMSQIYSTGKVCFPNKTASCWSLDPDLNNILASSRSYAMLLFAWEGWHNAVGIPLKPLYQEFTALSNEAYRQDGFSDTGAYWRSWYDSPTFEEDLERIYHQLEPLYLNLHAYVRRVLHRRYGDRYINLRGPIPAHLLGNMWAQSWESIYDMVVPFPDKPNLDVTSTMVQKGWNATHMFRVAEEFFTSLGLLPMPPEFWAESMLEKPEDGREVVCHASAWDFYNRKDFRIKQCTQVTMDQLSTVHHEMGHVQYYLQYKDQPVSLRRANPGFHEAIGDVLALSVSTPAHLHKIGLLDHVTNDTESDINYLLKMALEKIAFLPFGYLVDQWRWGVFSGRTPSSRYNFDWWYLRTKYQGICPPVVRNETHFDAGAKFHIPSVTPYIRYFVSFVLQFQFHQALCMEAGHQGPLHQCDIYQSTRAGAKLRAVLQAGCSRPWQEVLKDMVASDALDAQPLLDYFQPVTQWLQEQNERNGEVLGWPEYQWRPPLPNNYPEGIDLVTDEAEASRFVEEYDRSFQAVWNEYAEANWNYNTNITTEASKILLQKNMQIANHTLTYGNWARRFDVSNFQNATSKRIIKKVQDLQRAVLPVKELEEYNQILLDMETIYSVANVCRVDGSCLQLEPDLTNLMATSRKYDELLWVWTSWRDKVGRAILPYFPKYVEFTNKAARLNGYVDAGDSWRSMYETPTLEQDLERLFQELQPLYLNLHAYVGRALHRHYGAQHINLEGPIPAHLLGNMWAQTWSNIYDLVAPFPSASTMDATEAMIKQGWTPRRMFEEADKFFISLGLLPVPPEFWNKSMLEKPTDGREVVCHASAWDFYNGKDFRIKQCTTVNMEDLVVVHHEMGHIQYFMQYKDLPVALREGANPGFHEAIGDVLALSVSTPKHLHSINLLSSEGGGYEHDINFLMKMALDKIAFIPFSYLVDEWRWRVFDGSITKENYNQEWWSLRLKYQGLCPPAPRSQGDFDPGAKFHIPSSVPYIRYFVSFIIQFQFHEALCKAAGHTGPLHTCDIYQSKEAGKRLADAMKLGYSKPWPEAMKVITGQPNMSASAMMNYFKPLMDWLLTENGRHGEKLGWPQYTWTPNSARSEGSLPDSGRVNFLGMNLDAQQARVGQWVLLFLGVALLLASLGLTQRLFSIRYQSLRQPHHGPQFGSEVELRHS
Procedure: as §1

[6] = target: T3, ACE (Oryctolagus cuniculus, UniProt P12822); experiment: Far-UV circular dichroism of ACE-peptide complex; design: species or system Rabbit
T3 construct: Rabbit lung ACE (A6778, 98% purity); purchased Sigma-Aldrich A6778; host or cells: rabbit lung (tissue-derived)
T3 sequence (P12822 34-1310): T2 sequence (P12822 34-1310)
Procedure: as §2

[7] = test system: ACE; design: method as in earlier work; details: previously determined ref 8; read-out: IC50 for ACE inhibition; cited from earlier work
[8] = test system: ACE; details: cited from earlier work

With CC(C)C[C@H](N)C(=O)N[C@@H](Cc1ccc(O)cc1)C(=O)O [LY, Leu-Tyr] as the molecule, how does the “Mode of renin inhibition” value [1] read?
The value was “uncompetitive”.

And the “K′m” value ([1]; LY 0.8493 mM)?
Its value is 2.45 µM.

What about the “V′max” value ([1]; LY 0.8493 mM) of the same molecule?
The value was 17.74 FI/min.

What about the “K′m” value ([1]; LY 1.6986 mM) of the same molecule?
The value was 3.11 µM.

What about the “V′max” value ([1]; LY 1.6986 mM) of the same molecule?
The value was 17.63 FI/min.

And the Ki [1]?
Its Ki is 2240 µM.

What about the “λmax of renin emission” value ([2]; 0.170 mM peptide) of the same molecule?
Its value is 326 nm.

And the Unordered ([3]; peptide 12.5 µg/mL)?
The Unordered was 30.37±0.23^F %.

What about the α-helix ([3]; peptide 12.5 µg/mL) of the same molecule?
The α-helix was 4.63±0.12^B %.

And the β-sheet ([3]; peptide 12.5 µg/mL)?
Its β-sheet is 44.41±0.61^B %.

And the β-turn ([3]; peptide 12.5 µg/mL)?
Its β-turn is 19.41±0.17^B %.

What about the Unordered ([3]; peptide 25 µg/mL) of the same molecule?
The Unordered was 74.87% and 74.87±0.31^B %.

And the α-helix ([3]; peptide 25 µg/mL)?
The α-helix was 2.63±0.32^C %.

What about the β-sheet ([3]; peptide 25 µg/mL) of the same molecule?
The β-sheet was 4.33±0.32^E %.

And the β-turn ([3]; peptide 25 µg/mL)?
The β-turn was 19.73±1.45^B %.

And the IC50 [4]?
Its IC50 is 1870 µM.

For CC(C)C[C@H](NC(=O)[C@H](C)NC(=O)[C@@H](N)CCCNC(=N)N)C(=O)N1CCC[C@H]1C(=O)O [RALP, Arg-Ala-Leu-Pro] (H-RALP-OH), which Ki ([5]; ACE, secondary plot of Lineweaver-Burk slopes, read-out: Ki (enzyme-inhibitor dissociation constant)) is on record?
Its Ki is 104 µM.

And the Ki [1]?
The Ki was 285 µM.

Which results are given for C[C@@H](O)[C@H](N)C(=O)N[C@@H](Cc1ccccc1)C(=O)O [TF, Thr-Phe] (H-Thr-Phe-OH; N-terminus and C-terminus assumed)?
K′m ([5]; ACE, TF 0.1887 mM): 1.0088 mM; V′max ([5]; ACE, TF 0.1887 mM): 0.0185 ΔA/min; K′m ([5]; ACE, TF 0.7510 mM): 0.5546 mM; V′max ([5]; ACE, TF 0.7510 mM): 0.0097 ΔA/min; Mode of ACE inhibition ([5]; Lineweaver-Burk plots): mixed-type; Mode of renin inhibition [1]: non-competitive; K′m ([1]; TF 0.9387 mM): 4.78 µM; V′max ([1]; TF 0.9387 mM): 25.89 FI/min; K′m ([1]; TF 3.7551 mM): 4.41 µM; V′max ([1]; TF 3.7551 mM): 17.20 FI/min; λmax of renin emission ([2]; 0.047 mM peptide, 328.5 nm without peptide): 326 nm; λmax of renin emission ([2]; 0.094 mM peptide, 328.5 nm without peptide): 327 nm; Decrease in FI ([2]; renin paragraph (printed ACE FI), LY at 0.170 mM, concentration for TF, RALP not given): 47%; Unordered ([6]; peptide 12.5 µg/mL): 22.31±2.25^E %; α-helix ([6]; peptide 12.5 µg/mL): 16.55±0.49^B %; β-sheet ([6]; peptide 12.5 µg/mL): 41.67±2.17% and 41.67±2.17^A %; β-turn ([6]; peptide 12.5 µg/mL): 16.97±0.31^C %; Unordered ([6]; peptide 25 µg/mL): 39.9±1.56^B %; α-helix ([6]; peptide 25 µg/mL): 13.43±0.72^C %; β-sheet ([6]; peptide 25 µg/mL): 29.17±0.86% and 29.17±0.86^B %; β-turn ([6]; peptide 25 µg/mL): 17.33±0.64^C %; Factor of increase of unordered fraction in renin ([3]; 0.094 mM peptide): 2.25; Factor of reduction of β-sheet fraction in renin ([3]; 0.094 mM peptide): ~6; Unordered ([3]; peptide 12.5 µg/mL): 28.91±0.25^G %; α-helix ([3]; peptide 12.5 µg/mL): 2.91±0.26^C %; β-sheet ([3]; peptide 12.5 µg/mL): 46.97±0.31^A %; β-turn ([3]; peptide 12.5 µg/mL): 21.37±0.06^A %; Unordered ([3]; peptide 25 µg/mL): 72.25±0.21^C %; α-helix ([3]; peptide 25 µg/mL): 0.95±0.07^D %; β-sheet ([3]; peptide 25 µg/mL): 7.91±0.85^D %; β-turn ([3]; peptide 25 µg/mL): 18.95±0.21^B %; IC50 [7]: 810 µM; IC50 [4]: 3060 µM

Which “Mode of ACE inhibition” value [8] does the source give for AWLHPGAPKVF here?
Its value is “competitive”.

For FEDYVPLSCF, which “Mode of ACE inhibition” value [8] is on record?
Its value is “mixed-type”.

Which “Mode of ACE inhibition” value [8] does the source give for FNVPLYE here?
The value was “mixed-type”.

Which “Mode of ACE inhibition” value [8] does the source give for RMLGQTP here?
Its value is “mixed-type”.
